This is an account of results in US20250002507A1, “7,8-DIHYDRO-5H-1,6-NAPHTHYRIDINE DERIVATIVES AS POSITIVE ALLOSTERIC MODULATORS OF THE MUSCARINIC ACETYLCHOLINE RECEPTOR M4 FOR TREATING NEUROLOGICAL AND PSYCHIATRIC DISORDERS” (Vanderbilt University, priority 2021, published 2025).

The assay deals with T1, Human M4 (Homo sapiens, UniProt P08173).
T1 construct: expressed in transfected cells
T1 sequence (P08173 1-479): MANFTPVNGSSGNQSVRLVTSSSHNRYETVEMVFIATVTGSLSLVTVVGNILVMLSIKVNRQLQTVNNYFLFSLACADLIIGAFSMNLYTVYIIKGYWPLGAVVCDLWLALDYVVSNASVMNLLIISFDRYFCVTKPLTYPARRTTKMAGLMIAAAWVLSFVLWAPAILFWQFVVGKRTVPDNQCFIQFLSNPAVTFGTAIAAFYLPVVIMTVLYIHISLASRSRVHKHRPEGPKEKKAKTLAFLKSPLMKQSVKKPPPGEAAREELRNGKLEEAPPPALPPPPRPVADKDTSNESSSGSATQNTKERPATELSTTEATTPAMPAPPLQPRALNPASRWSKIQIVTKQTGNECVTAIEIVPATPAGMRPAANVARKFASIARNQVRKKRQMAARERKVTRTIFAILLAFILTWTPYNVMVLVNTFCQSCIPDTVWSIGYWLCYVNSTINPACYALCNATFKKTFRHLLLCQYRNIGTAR
Kind of assay: mAChR M4 cell-based functional assay (calcium flux, potentiation of EC20 acetylcholine response), hM4-Gqi5 CHO-K1 cells. The conditions noted are these: Table 3; for Emax at 30 µM: CHO-K1, Human M4, % ACh maximum at 30 μM, read-out: Emax (% ACh maximum at 30 μM); for EC50: potentiation of EC20 acetylcholine response, calcium flux, CHO-K1 cells, read-out: Human M4 EC50. Put shortly:
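Positive allosteric modulation was scored as a concentration-dependent rise in the response to an EC20 dose of acetylcholine, added 144 s after the compound. Human M4-Gqi5 CHO-K1 cells carried Fluo-4 dye, and compounds ran as 11-point, 3-fold dilution series. EC50 and Emax came from four-parameter logistic fits of the FDSS fluorescence-ratio traces.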
Background: Calcium assays in cells follow changes in intracellular calcium, usually with a dye or a luminescent sensor.

`Cc1c(N2CCc3ncc(-n4cccn4)cc3C2)nn2c(C(F)(F)F)nnc2c1C` [Compound 247, 6-(7,8-dimethyl-3-(trifluoromethyl)-[1,2,4]triazolo[4,3-b]pyridazin-6-yl)-3-(1H-pyrazol-1-yl)-5,6,7,8-tetrahydro-1,6-naphthyridine]: the Emax (usually the maximal effect, on the per cent scale that the assay sets) at 30 µM is 74% and the EC50 (commonly the concentration that produces a half-maximal response) worked out at 308 nM.

Consider `Cc1c(N2CCc3ncc(-n4ccc5ccccc54)cc3C2)nn2c(C(F)(F)F)nnc2c1C` [Compound 248, 6-(7,8-dimethyl-3-(trifluoromethyl)-[1,2,4]triazolo[4,3-b]pyridazin-6-yl)-3-(1H-indol-1-yl)-5,6,7,8-tetrahydro-1,6-naphthyridine], for which the Emax at 30 µM amounted to 58% and the EC50 came out at 2310 nM.

On to `Cc1c(N2CCc3ncc(-c4ccc(N5CC[C@@H](F)C5)nc4)cc3C2)nn2c(C(F)(F)F)nnc2c1C` [Compound 249, (R)-6-(7,8-dimethyl-3-(trifluoromethyl)-[1,2,4]triazolo[4,3-b]pyridazin-6-yl)-3-(6-(3-fluoropyrrolidin-1-yl)pyridin-3-yl)-5,6,7,8-tetrahydro-1,6-naphthyridine], for which the Emax at 30 µM came out at 65% and the EC50 is 1210 nM.

On to `Cc1c(N2CCc3ncc(-c4ccc(N5CC[C@H](F)C5)nc4)cc3C2)nn2c(C(F)(F)F)nnc2c1C` [Compound 250, (S)-6-(7,8-dimethyl-3-(trifluoromethyl)-[1,2,4]triazolo[4,3-b]pyridazin-6-yl)-3-(6-(3-fluoropyrrolidin-1-yl)pyridin-3-yl)-5,6,7,8-tetrahydro-1,6-naphthyridine], for which the Emax at 30 µM was 60% and the EC50 came out at 1250 nM.

With `Cc1c(N2CCc3ncc(-c4ccnn4C)cc3C2)nn2c(C(F)(F)F)nnc2c1C` [Compound 251, 6-(7,8-dimethyl-3-(trifluoromethyl)-[1,2,4]triazolo[4,3-b]pyridazin-6-yl)-3-(1-methyl-1H-pyrazol-5-yl)-5,6,7,8-tetrahydro-1,6-naphthyridine], the Emax at 30 µM is 83% and the EC50 came to 169 nM.

Consider `Cc1c(N2CCc3ncc(-c4ccns4)cc3C2)nn2c(C(F)(F)F)nnc2c1C` [Compound 252, 5-(6-(7,8-dimethyl-3-(trifluoromethyl)-[1,2,4]triazolo[4,3-b]pyridazin-6-yl)-5,6,7,8-tetrahydro-1,6-naphthyridin-3-yl)isothiazole], for which the Emax at 30 µM stood at 80% and the EC50 worked out at 140 nM.

Turning to `Cc1c(N2CCc3ncc(-c4cnn(C5CCCCC5)c4)cc3C2)nn2c(C(F)(F)F)nnc2c1C` [Compound 253, 3-(1-cyclohexyl-1H-pyrazol-4-yl)-6-(7,8-dimethyl-3-(trifluoromethyl)-[1,2,4]triazolo[4,3-b]pyridazin-6-yl)-5,6,7,8-tetrahydro-1,6-naphthyridine], the Emax at 30 µM was 42% and the EC50 was 1690 nM.

Consider `Cc1c(N2CCc3ncc(-c4ccn(C)n4)cc3C2)nn2c(C(F)(F)F)nnc2c1C` [Compound 254, 6-(7,8-dimethyl-3-(trifluoromethyl)-[1,2,4]triazolo[4,3-b]pyridazin-6-yl)-3-(1-methyl-1H-pyrazol-3-yl)-5,6,7,8-tetrahydro-1,6-naphthyridine], for which the Emax at 30 µM was determined as 76% and the EC50 was 494 nM.

On to `Cc1c(N2CCc3ncc(-c4ccc(C5CC5)nc4)cc3C2)nn2c(C(F)(F)F)nnc2c1C` [Compound 255, 3-(6-cyclopropylpyridin-3-yl)-6-(7,8-dimethyl-3-(trifluoromethyl)-[1,2,4]triazolo[4,3-b]pyridazin-6-yl)-5,6,7,8-tetrahydro-1,6-naphthyridine], for which the Emax at 30 µM was determined as 62% and the EC50 was 602 nM.

On to `Cc1ccc(-c2cnc3c(c2)CN(c2nn4c(C(F)(F)F)nnc4c(C)c2C)CC3)cn1` [Compound 256, 6-(7,8-dimethyl-3-(trifluoromethyl)-[1,2,4]triazolo[4,3-b]pyridazin-6-yl)-3-(6-methylpyridin-3-yl)-5,6,7,8-tetrahydro-1,6-naphthyridine], for which the Emax at 30 µM turned out to be 78% and the EC50 came out at 250 nM.

Take `Cc1c(N2CCc3ncc(-c4cccnc4)cc3C2)nn2c(C(F)(F)F)nnc2c1C` [Compound 257, 6-(7,8-dimethyl-3-(trifluoromethyl)-[1,2,4]triazolo[4,3-b]pyridazin-6-yl)-3-(pyridin-3-yl)-5,6,7,8-tetrahydro-1,6-naphthyridine]: the Emax at 30 µM worked out at 78% and the EC50 is 218 nM.

Take `COc1ccc(-c2cnc3c(c2)CN(c2nn4c(C(F)(F)F)nnc4c(C)c2C)CC3)cn1` [Compound 258, 6-(7,8-dimethyl-3-(trifluoromethyl)-[1,2,4]triazolo[4,3-b]pyridazin-6-yl)-3-(6-methoxypyridin-3-yl)-5,6,7,8-tetrahydro-1,6-naphthyridine]: the Emax at 30 µM stood at 77% and the EC50 was found to be 578 nM.

Regarding `Cc1c(N2CCc3ncc(-c4ccc(C(F)(F)F)nc4)cc3C2)nn2c(C(F)(F)F)nnc2c1C` [Compound 259, 6-(7,8-dimethyl-3-(trifluoromethyl)-[1,2,4]triazolo[4,3-b]pyridazin-6-yl)-3-(6-(trifluoromethyl)pyridin-3-yl)-5,6,7,8-tetrahydro-1,6-naphthyridine], the Emax at 30 µM stood at 55% and the EC50 was determined as 1450 nM.

As to `Cc1c(N2CCc3ncc(OCC4COCCO4)cc3C2)nn2cnnc2c1C` (stereo not drawn) [Compound 260, 3-((1,4-dioxan-2-yl)methoxy)-6-(7,8-dimethyl-[1,2,4]triazolo[4,3-b]pyridazin-6-yl)-5,6,7,8-tetrahydro-1,6-naphthyridine], the Emax at 30 µM worked out at 84% and the EC50 is 7670 nM.

`Cc1c(N2CCc3ncc(OCC4CC4)cc3C2)nn2cnnc2c1C` [Compound 261, 3-(cyclopropylmethoxy)-6-(7,8-dimethyl-[1,2,4]triazolo[4,3-b]pyridazin-6-yl)-5,6,7,8-tetrahydro-1,6-naphthyridine]: the Emax at 30 µM is 90% and the EC50 amounted to 331 nM.

Turning to `Cc1c(N2CCc3ncc(OCC4COC4)cc3C2)nn2cnnc2c1C` [Compound 262, 6-(7,8-dimethyl-[1,2,4]triazolo[4,3-b]pyridazin-6-yl)-3-(oxetan-3-ylmethoxy)-5,6,7,8-tetrahydro-1,6-naphthyridine], the Emax at 30 µM amounted to 82% and the EC50 turned out to be 1580 nM.

Consider `Cc1c(N2CCc3ncc(OCC4CC(F)(F)C4)cc3C2)nn2cnnc2c1C` [Compound 263, 3-((3,3-difluorocyclobutyl)methoxy)-6-(7,8-dimethyl-[1,2,4]triazolo[4,3-b]pyridazin-6-yl)-5,6,7,8-tetrahydro-1,6-naphthyridine], for which the Emax at 30 µM is 79% and the EC50 is 502 nM.

As for `Cc1c(N2CCc3ncc(OCC4CCOC4)cc3C2)nn2cnnc2c1C` (stereo not drawn) [Compound 264, 6-(7,8-dimethyl-[1,2,4]triazolo[4,3-b]pyridazin-6-yl)-3-((tetrahydrofuran-3-yl)methoxy)-5,6,7,8-tetrahydro-1,6-naphthyridine], the Emax at 30 µM is 82% and the EC50 came out at 1220 nM.

In the case of `Cc1c(N2CCc3ncc(OCc4ccccc4)cc3C2)nn2cnnc2c1C` [Compound 265, 3-(benzyloxy)-6-(7,8-dimethyl-[1,2,4]triazolo[4,3-b]pyridazin-6-yl)-5,6,7,8-tetrahydro-1,6-naphthyridine], the Emax at 30 µM was 74% and the EC50 amounted to 724 nM.

Regarding `Cc1c(N2CCc3ncc(OCC4CC4(F)F)cc3C2)nn2cnnc2c1C` (stereo not drawn) [Compound 266, 3-((2,2-difluorocyclopropyl)methoxy)-6-(7,8-dimethyl-[1,2,4]triazolo[4,3-b]pyridazin-6-yl)-5,6,7,8-tetrahydro-1,6-naphthyridine], the Emax at 30 µM is 93% and the EC50 amounted to 346 nM.

Consider `Cc1c(N2CCc3ncc(N4CCCn5nccc54)cc3C2)nn2c(C(F)(F)F)nnc2c1C` [Compound 267, 3-(6,7-dihydropyrazolo[1,5-a]pyrimidin-4(5H)-yl)-6-(7,8-dimethyl-3-(trifluoromethyl)-[1,2,4]triazolo[4,3-b]pyridazin-6-yl)-5,6,7,8-tetrahydro-1,6-naphthyridine], for which the Emax at 30 µM worked out at 100% and the EC50 was determined as 37 nM.

Consider `Cc1c(N2CCc3ncc(C(F)(F)F)cc3C2)nn2c(Cl)nnc2c1C` [Compound 268, 6-(3-Chloro-7,8-dimethyl-[1,2,4]triazolo[4,3-b]pyridazin-6-yl)-3-(trifluoromethyl)-7,8-dihydro-5H-1,6-naphthyridine], for which the Emax at 30 µM came out at 95% and the EC50 amounted to 143 nM.

Take `Cc1c(N2Cc3cc(C(F)(F)F)cnc3C(C)(C)C2)nn2cnnc2c1C` [Compound 269, 6-(7,8-Dimethyl-[1,2,4]triazolo[4,3-b]pyridazin-6-yl)-8,8-dimethyl-3-(trifluoromethyl)-5,6,7,8-tetrahydro-1,6-naphthyridine]: the Emax at 30 µM stood at 42% and the EC50 turned out to be 1670 nM.

For the compound `COc1nnc2c(C)c(C)c(N3CCc4ncc(C(F)(F)F)cc4C3)nn12` [Compound 270, 6-(3-Methoxy-7,8-dimethyl-[1,2,4]triazolo[4,3-b]pyridazin-6-yl)-3-(trifluoromethyl)-7,8-dihydro-5H-1,6-naphthyridine], the Emax at 30 µM came to 97% and the EC50 amounted to 168 nM.
